Results as given in patent publication US8115059B1, “Gene expression modulation system for use in plants and method for modulating gene expression in plants” (University of Kentucky Research Foundation, priority 2005, dated 2012).

What was measured:
[1] = system: ms45 mutant; details: transgenic ms45 maize with Ms45 under EcR-based switch; cited from earlier work
[2] = molecular target: GAL4 DBD:CfEcR fusion protein (Choristoneura fumiferana); assay: cell-based or functional assay

Row | Molecule | restoration of male fertility [1] | methoxyfenozide concentration at maximum luciferase activity, two-hybrid gene switch, tobacco protoplasts (nM methoxyfenozide) [2]
1 | COc1cccc(C(=O)NN(C(=O)c2cc(C)cc(C)c2)C(C)(C)C)c1C [methoxyfenozide] | able to restore male fertility | –
2 | VP16 AD:LmRXR triple mutant A62S:T81H:V123I (Lm-7) fusion protein (receptor) | – | 80
